Reference: US11434242B2, “Dopamine-b-hydroxylase inhibitors” (BIAL-PORTELA & Cª, S.A., priority 2017, dated 2022)
Structures can show the parent of a compound that is named as a salt.

Key:
DβH = molecular target: T1, DβH (Homo sapiens, UniProt P09172); experiment: DβH inhibition assay in SK-N-SH cellular homogenates (tyramine to octopamine); assay type: biochemical; details: SK-N-SH cell homogenate; for SKNSH (1 μM), activity in % of control: inhibitor 1 μM; for SKNSH (0.1 μM), activity in % of control: inhibitor 0.1 μM
T1 construct: cellular homogenate (75 μg total protein); host or cells: SK-N-SH cells (homogenate)
T1 sequence (P09172 1-617): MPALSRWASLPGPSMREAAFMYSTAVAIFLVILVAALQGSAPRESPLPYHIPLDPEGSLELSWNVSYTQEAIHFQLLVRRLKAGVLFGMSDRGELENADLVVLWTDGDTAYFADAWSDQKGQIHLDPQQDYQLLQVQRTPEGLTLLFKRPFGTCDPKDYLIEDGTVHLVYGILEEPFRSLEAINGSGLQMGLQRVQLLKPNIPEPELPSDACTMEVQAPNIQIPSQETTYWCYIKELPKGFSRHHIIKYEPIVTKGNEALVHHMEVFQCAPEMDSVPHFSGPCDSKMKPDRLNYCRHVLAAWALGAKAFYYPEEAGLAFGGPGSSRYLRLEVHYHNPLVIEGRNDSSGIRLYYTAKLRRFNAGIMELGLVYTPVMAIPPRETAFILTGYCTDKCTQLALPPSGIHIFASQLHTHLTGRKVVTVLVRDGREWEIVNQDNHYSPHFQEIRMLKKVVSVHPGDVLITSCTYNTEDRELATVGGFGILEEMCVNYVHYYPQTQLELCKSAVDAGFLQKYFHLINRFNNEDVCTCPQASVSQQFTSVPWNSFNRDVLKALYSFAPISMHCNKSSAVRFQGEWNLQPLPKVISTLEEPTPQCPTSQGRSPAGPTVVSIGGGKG

[1] = molecular target: T2, Dopamine beta hydroxylase (Homo sapiens, UniProt P09172); experiment: Dopamine beta hydroxylase activity in human plasma; assay type: biochemical; details: for Plasma (0.01 μM), activity in % of control: inhibitor 0.01 μM; for Plasma (0.1 μM), activity in % of control: inhibitor 0.1 μM
T2 construct: 125 μl of plasma; tissue Instituto Português do Sangue Transplantação; host or cells: human plasma from healthy donors
T2 sequence (P09172 40-617 limits assumed): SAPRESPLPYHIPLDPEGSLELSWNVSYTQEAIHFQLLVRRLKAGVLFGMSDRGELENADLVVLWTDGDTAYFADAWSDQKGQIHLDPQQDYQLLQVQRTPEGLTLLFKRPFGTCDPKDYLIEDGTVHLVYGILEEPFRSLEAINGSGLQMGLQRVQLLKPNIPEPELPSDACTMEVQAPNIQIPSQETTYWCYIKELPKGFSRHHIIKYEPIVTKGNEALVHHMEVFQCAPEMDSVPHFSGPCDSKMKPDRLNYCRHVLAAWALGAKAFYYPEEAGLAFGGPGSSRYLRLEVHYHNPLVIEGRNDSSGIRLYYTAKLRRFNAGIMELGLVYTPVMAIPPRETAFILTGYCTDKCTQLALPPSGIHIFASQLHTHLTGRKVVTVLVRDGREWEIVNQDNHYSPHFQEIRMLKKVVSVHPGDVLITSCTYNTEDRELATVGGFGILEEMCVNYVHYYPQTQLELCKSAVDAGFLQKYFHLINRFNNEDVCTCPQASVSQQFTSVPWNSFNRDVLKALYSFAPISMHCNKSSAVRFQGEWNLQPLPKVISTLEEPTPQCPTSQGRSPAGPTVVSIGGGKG
Method in brief: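 Octopamine production from tyramine over 45 min at 37° C, measured photometrically at 330 nm after SCX extraction and periodate oxidation against an octopamine standard curve, indicates plasma DβH activity. Compounds tested at final 10, 100 and 1000 nM in human plasma, pH 5.0 cofactor buffer, 10 min preincubation; results as % of control.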

Compound	Plasma (0.01 μM), activity in % of control [1]	Plasma (0.1 μM), activity in % of control [1]	SKNSH (1 μM), activity in % of control (DβH)	also measured
CCOC(=O)Cc1[nH]c(=S)n2c1C[C@@H](c1cc(F)cc(F)c1)C2 [Example 1, (S)-ethyl 2-(6-(3,5-difluorophenyl)-3-thioxo-3,5,6,7-tetrahydro-2H-pyrrolo[1,2-c]imidazol-1-yl)acetate]			37.9 % of control	
Fc1ccc(F)c([C@]23C[C@H]2c2c(Cc4nnn[nH]4)[nH]c(=S)n2C3)c1 [Example 41, (5aS,6aR)-1-((1H-tetrazol-5-yl)methyl)-5a-(2,5-difluorophenyl)-5,5a,6,6a-tetrahydrocyclopropa[3,4]pyrrolo[1,2-c]imidazole-3(2H)-thione]			60.7 % of control	
O=C(O)Cc1[nH]c(=S)n2c1C[C@@H](c1cc(F)ccc1F)C2 [Example 3, (S)-2-(6-(2,5-difluorophenyl)-3-thioxo-3,5,6,7-tetrahydro-2H-pyrrolo[1,2-c]imidazol-1-yl)acetic Acid]			35.8 % of control	
OCc1[nH]c(=S)n2c1[C@@H]1C[C@]1(c1cc(F)cc(F)c1)C2 [Example 50, (5aS,6aR)-5a-(3,5-difluorophenyl)-1-(hydroxymethyl)-5,5a,6,6a-tetrahydrocyclopropa[3,4]pyrrolo[1,2-c]imidazole-3(2H)-thione]			1.8 % of control	SKNSH (0.1 μM), activity in % of control (DβH): 57.5 % of control
CCOC(=O)Cc1[nH]c(=S)n2c1C[C@@H](c1cc(F)ccc1F)C2 [Example 2, (S)-ethyl 2-(6-(2,5-difluorophenyl)-3-thioxo-3,5,6,7-tetrahydro-2H-pyrrolo[1,2-c]imidazol-1-yl)acetate]			49.3 % of control	
CS(=O)(=O)Cc1[nH]c(=S)n2c1C[C@@H](c1c(F)c(F)cc(F)c1F)C2 [Example 47, (S)-1-(methylsulfonylmethyl)-6-(2,3,5,6-tetrafluorophenyl)-6,7-dihydro-2H-pyrrolo[1,2-c]imidazole-3(5H)-thione]			62.9 % of control	
O=C(O)Cc1[nH]c(=S)n2c1[C@@H]1C[C@]1(c1cc(F)cc(F)c1)C2 [Example 7, 2-((5aS,6aR)-5a-(3,5-difluorophenyl)-3-thioxo-2,3,5,5a,6,6a-hexahydrocyclopropa[3,4]pyrrolo[1,2-c]imidazol-1-yl)acetic Acid]			3.6 % of control	SKNSH (0.1 μM), activity in % of control (DβH): 45.6 % of control
COC(=O)Cc1[nH]c(=S)n2c1[C@@H]1C[C@]1(c1cc(F)ccc1F)C2 [Example 4, Methyl 2-((5aS,6aR)-5a-(2,5-difluorophenyl)-3-thioxo-2,3,5,5a,6,6a-hexahydrocyclopropa[3,4]pyrrolo[1,2-c]imidazol-1-yl)acetate]			20.3 % of control	
O=C(Cc1[nH]c(=S)n2c1C[C@@H](c1cc(F)cc(F)c1)C2)N1CCOCC1 [Example 9, (S)-2-(6-(3,5-difluorophenyl)-3-thioxo-3,5,6,7-tetrahydro-2H-pyrrolo[1,2-c]imidazol-1-yl)-1-morpholinoethanone]			54.9 % of control	
NCCc1[nH]c(=S)n2c1[C@@H]1C[C@]1(c1cc(F)cc(F)c1)C2 [Example 35, (5aS,6aR)-1-(2-aminoethyl)-5a-(3,5-difluorophenyl)-5,5a,6,6a-tetrahydrocyclopropa[3,4]pyrrolo[1,2-c]imidazole-3(2H)-thione Hydrochloride]			45.9 % of control	
O=C(Cc1[nH]c(=S)n2c1C[C@@H](c1c(F)ccc(Br)c1F)C2)N1CC[S+]([O-])CC1 [Example 166, (S)-2-(6-(3-bromo-2,6-difluorophenyl)-3-thioxo-2,5,6,7-tetrahydro-3H-pyrrolo[1,2-c]imidazol-1-yl)-1-(1-oxidothiomorpholino)ethan-1-one]	66.9 % of control	14.1 % of control		
NC(=O)Cc1[nH]c(=S)n2c1C[C@@H](c1c(F)ccc(Br)c1F)C2 [Example 96, (S)-2-(6-(3-bromo-2,6-difluorophenyl)-3-thioxo-2,5,6,7-tetrahydro-3H-pyrrolo[1,2-c]imidazol-1-yl)acetamide]		22.4 % of control		Plasma (1 μM), activity in % of control ([1]; inhibitor 1 μM): 0.8 % of control
Cl.Fc1ccc(F)c([C@H]2Cc3c(CCNC[C@@H]4CCCO4)[nH]c(=S)n3C2)c1F [Example 475, (R)-1-(2-((((S)-tetrahydrofuran-2-yl)methyl)amino)ethyl)-6-(2,3,6-trifluorophenyl)-2,5,6,7-tetrahydro-3H-pyrrolo[1,2-c]imidazole-3-thione hydrochloride]	85.0 % of control	67.0 % of control		

Now from value to compound, other results behind:

Plasma (0.01 μM), activity in % of control [1]	Plasma (0.1 μM), activity in % of control [1]	Compound	SKNSH (1 μM), activity in % of control (DβH)	also measured
89.2 % of control	74.5 % of control	Cn1c(CC(=O)N2CCC[C@H]2CF)c2n(c1=S)C[C@@H](c1c(F)ccc(F)c1F)C2 [Example 296, 1-((S)-2-(fluoromethyl)pyrrolidin-1-yl)-2-((R)-2-methyl-3-thioxo-6-(2,3,6-trifluorophenyl)-2,5,6,7-tetrahydro-3H-pyrrolo[1,2-c]imidazol-1-yl)ethan-1-one]		
89.7 % of control	13.3 % of control	Cl.Cn1c(CC(=O)N2CCNCC2)c2n(c1=S)C[C@@]1(c3cc(Br)ccc3F)C[C@@H]21 [Example 321, 2-((5aS,6aR)-5a-(5-bromo-2-fluorophenyl)-2-methyl-3-thioxo-2,3,5,5a,6,6a-hexahydrocyclopropa[3,4]pyrrolo[1,2-c]imidazol-1-yl)-1-(piperazin-1-yl)ethan-1-one Hydrochloride]		
59.2 % of control	11.5 % of control	CN(C(=O)Cc1c2n(c(=S)n1C)C[C@@]1(c3c(F)ccc(Cl)c3F)C[C@@H]21)C1CCOCC1 [Example 443, 2-((5aS,6aR)-5a-(3-chloro-2,6-difluorophenyl)-2-methyl-3-thioxo-2,3,5,5a,6,6a-hexahydrocyclopropa[3,4]pyrrolo[1,2-c]imidazol-1-yl)-N-methyl-N-(tetrahydro-2H-pyran-4-yl)acetamide]		
31.9 % of control	7.3 % of control	Cn1c(CC(=O)NC2COC2)c2n(c1=S)C[C@@]1(c3c(F)ccc(Cl)c3F)C[C@@H]21 [Example 400, 2-((5aS,6aR)-5a-(3-chloro-2,6-difluorophenyl)-2-methyl-3-thioxo-2,3,5,5a,6,6a-hexahydrocyclopropa[3,4]pyrrolo[1,2-c]imidazol-1-yl)-N-(oxetan-3-yl)acetamide]		
77.2 % of control	40.3 % of control	Cn1c(CC(=O)NC2CCCC2C#N)c2n(c1=S)C[C@@H](c1c(F)ccc(F)c1F)C2 (stereo partly drawn) [Example 345, N-(2-cyanocyclopentyl)-2-((R)-2-methyl-3-thioxo-6-(2,3,6-trifluorophenyl)-2,5,6,7-tetrahydro-3H-pyrrolo[1,2-c]imidazol-1-yl)acetamide]		
33.4 % of control	4.5 % of control	[2H]C([2H])([2H])n1c(CC(=O)N[C@@H]2CCCOC2)c2n(c1=S)C[C@@]1(c3cc(Br)ccc3F)C[C@@H]21 [Example 464, 2-((5aS,6aR)-5a-(5-bromo-2-fluorophenyl)-2-(methyl-d)-3-thioxo-2,3,5,5a,6,6a-hexahydrocyclopropa[3,4]pyrrolo[1,2-c]imidazol-1-yl)-N—((R)-tetrahydro-2H-pyran-3-yl)acetamide]		
70.6 % of control	18.0 % of control	Cn1c(CC(=O)N[C@H]2CCOC2)c2n(c1=S)C[C@@]1(c3cc(Cl)ccc3F)C[C@@H]21 [Example 306, 2-((5aS,6aR)-5a-(5-chloro-2-fluorophenyl)-2-methyl-3-thioxo-2,3,5,5a,6,6a-hexahydrocyclopropa[3,4]pyrrolo[1,2-c]imidazol-1-yl)-N—((S)-tetrahydrofuran-3-yl)acetamide]		
